In patent US20120035320A1, “POLYACRIDINE NUCLEIC ACID DELIVERY PEPTIDE COMPLEXES” (University of Iowa Research Foundation, priority 2010, published 2012):
Entries after “also recorded” stand apart in the source; their conditions may differ. Like-named read-outs stand apart in the source and are kept apart here. No end group written: not given here. *: point of attachment. 6‑(9-acridinylamino)hexanoyl = O=C(CCCCCNc1c2ccccc2nc2ccccc12)*; Acr = acridine on the lysine ε-amine; PEG = not defined here

Assays:
pGL3 [1] = experiment: thiazole orange fluorophore exclusion assay of polyacridine-melittin peptides; type: binding; settings: pGL3, 0.1 μM thiazole orange
Protocol: The relative binding affinity of peptides for DNA was determined by a fluorophore exclusion assay (Rich, D. H., Gesellchen, P. D., Tong, A., Cheung, A., and Buckner, C. K. (1975) Alkylating derivatives of amino acids and peptides. Synthesis of N-maleoylamino acids, [1-(N-maleoylglycyl)cysteinyl]oxytocin, and [1-(N-maleoyl-11-aminoundecanoyl)cysteinyl]oxytocin. Effects on vasopressin-stimulated water loss from isolated toad bladder. J. Med. Chem. 18, 1004-1010). pGL3 (200 μl of 4 μg/ml in 5 mM Hepes pH 7.5 containing 0.1 μM thiazole orange) was combined with 0, 0.05, 0.1, 0.25, 0.35, 0.5, 1, and 2 nmols of peptide in 300 μl of Hepes and allowed to bind at RT for 30 min. Thiazole orange fluorescence was measured using an LS50B fluorometer (Perkin-Elmer, U.K.) by exciting at 498 nm while monitoring emission at 546 nm with the slit widths set at 10 nm. A fluorescence blank of thiazole orange in the absence of DNA was subtracted from all values before data analysis. The data is presented as nmol of peptide per μg of DNA versus the percent fluorescence intensity±the standard deviation determined by three independent measurements.

Erythrocytes = experiment: RBC hemolysis assay; type: cell-based, mice; settings: for hemolytic activity when combined with pGL3: pH 7.4, peptide DNA polyplex 1.5 nmols and 7.5 μg pGL3
Protocol: Whole blood was obtained from male ICR mice by heart puncture with heparinized 22 G needles and collected in conical tubes containing 10 ml of 0.15 M PBS (pH 7.4) prewarmed to 37° C. Erythrocytes were immediately separated from plasma by centrifugation at 2000 rpm for 2 min, washed three times with 10 ml of PBS, and then diluted to 1.5×10^8 cells/ml. Peptides were prepared at 15 μM and serially diluted to 10-0.01 μM, after which 100 μl was pipetted in triplicate into a MultiScreenHTS BV 96 well plate. Erythrocytes (50 μl, 7.5×10^6 cells) were added to the peptides and incubated at 37° C. for 1 h followed by filtration on a Multiscreen vacuum manifold (Millipore Corporation, Billerica, Mass.). The filtrate was measured for Abs410nm on a Biotech plate reader (Biotech Instruments Incorporated., Winooski, Vt.) and compared to the 100% hemolysis caused by replacing PBS with water. Peptide DNA polyplexes (1.5 nmols and 7.5 μg pGL3) were also assayed for hemolysis as described above.

[2] = system: gastrocnemius muscle of ICR male mice; experiment: intramuscle-electroporation dosing and bioluminescence imaging; type: in vivo; settings: IM-EP
Protocol: Male ICR mice (Harlan), weighing 25-30 g were prepared for IM-EP dosing by anesthetization with an intraperitoneal dose of 200 μl of ketamine/xylazine (20 mg/ml and 2 mg/ml, respectively). The hamstring muscles were sheared and swabbed with 70% ethanol prior to administering a 50 μl dose over 10 sec in normal saline to both gastrocnemius muscles in 2 mice by a 1 ml monoject syringe (1 cc, 28 G×½). After dosing the BTX 2-Needle Array Electrode was inserted into the skin with the electrodes straddling the dosing site. Successive electronic stimulation was generated by the EMC BTX 830, Square-wave Pulse Generator (BTX, Harvard Apparatus) as the power source. At 1 min post-administration of the DNA dose, the pulse generator delivered six successive 100 V pulses over 20 msec with a 100 msec interval between pulses (31).
Luciferase reporter gene expression was quantified by bioluminescence imaging (BLI) at 2-14 days following IM-EP using an IVIS Imaging System 200 Series (Xenogen) (Wu, J. C., Sundaresan, G., Iyer, M., and Gambhir, S. S. (2001) Noninvasive optical imaging of firefly luciferase reporter gene expression in skeletal muscles of living mice. Molecular Therapy: the Journal of the American Society of Gene Therapy 4, 297-306). Mice were anesthetized by isofluorane (2% flow with oxygen) and dosed intramuscularly with 40 μL of 30 mg per ml D-Luciferin (GoldBio). Bioluminescent images were acquired 5 min post substrate administration and acquired for 1 min with a 24.6 cm field of view. The resultant grayscale images with a colormap overlay were analyzed using the Igor Pro 4.09 software (Livinglmage). Luciferase expression is reported as photons/sec/cm^2/steradian within a uniformly defined region of interest.

[3] = particle size and zeta potential of polyacridine PEG-peptide DNA open polyplexes; type: physicochemical; settings: for apparent particle diameter: QELS, 0.2 nmols per μg of DNA or higher
Protocol: Polyacridine PEG-peptide DNA polyplexes were formed by combining 10 μg of pGL3 (in 500 μl of 5 mM Hepes pH 7.4) with an equal volume containing either 1, 2, 4, 8, 12, 16, or 20 nmol of polyacridine PEG-peptide while vortexing. The polyplexes were equilibrated at RT for 30 min prior to analysis of particle size (QELS) and zeta potential using a Brookhaven ZetaPlus (Brookhaven Instruments, Holtsville, N.Y.). The particle size diameter and zeta potential are reported as the mean and standard deviation of ten measurements.

pGL3 [4] = experiment: gel band shift assay of acridine PEGs and polyacridine PEG-peptides; type: binding; settings: constant stoichiometry of 1 nmol per μg of DNA
Protocol: The samples were loaded onto a 1% agarose gel (50 ml) and electrophoresed in TAE buffer at 80 V for 90 min. […] The samples were applied to a 1% agarose gel and electrophoresed as described above.

liver = experiment: hydrodynamic stimulation and bioluminescence imaging of luciferase expression; type: in vivo, mice; settings: tail vein 1 μg pGL3 in complex with 0.5 nmol peptide; HD stimulation 30 min after DNA
Protocol: pGL3 (1 μg) was prepared in a volume of normal saline corresponding to 9 wt/vol % of the mouse's body weight (1.8-2.25 ml based on 20-25 g mice). The DNA dose was administered by tail vein to 4-5 mice in 5 sec according to a published procedure (Liu F, Song Y, Liu D. Hydrodynamics-based transfection in animals by systemic administration of plasmid DNA. Gene Ther 1999; 6: 1258-1266; Zhang G, Budker V, Wolff J A. High levels of foreign gene expression in hepatocytes after tail vein injections of naked plasmid DNA. Human Gene Therapy 1999; 10: 1735-1737). Mice (4-5) were also dosed tail vein with 1 μg of PEGylated polyacridine polyplex in 50 μl of HBM (5 mM Hepes, 0.27 M mannitol, pH 7.4). At times ranging from 5-120 min, a stimulatory hydrodynamic dose of normal saline (9 wt/vol % of the body weight) was administered over 5 sec. At 24 hrs post-DNA dose, mice were anesthetized by 3% isofluorane, then administered an i.p. dose of 80 μl (2.4 mg) of D-luciferin (30 μg/μl in phosphate-buffered saline). At 5 min following the D-luciferin dose, mice were imaged for bioluminescence (BLI) on an IVIS Imaging 200 Series (Xenogen). BLI was performed in a light-tight chamber on a temperature-controlled, adjustable stage while isofluorane was administered by a gas manifold at a flow rate of 3%. Images were acquired at a ‘medium’ binning level and a 20 cm field of view. Acquisition times were varied (1 sec^−1 min) depending on the intensity of the luminescence. The Xenogen system reported bioluminescence as photons/sec/cm^2/seradian in a 2.86 cm diameter region of interest covering the liver. The integration area was transformed to pmols of luciferase in the liver using a previously reported standard curve (Rettig G et al. Quantitative Bioluminscence Imaging of Transgene Expression In Vivo. Analytical Biochemistry 2006; 335: 90-94). The results were determined to be statistically significant (p≦0.05) based on a two-tailed unpaired t-test.

[5] = RBC hemolysis at pH 5.0, second value of the cell (pH 7.4:5.0), read-out: HL50 (μM) pH 5.0
[6] = RBC hemolysis at pH 7.4, first value of the cell (pH 7.4:5.0), read-out: HL50 (μM) pH 7.4

Molecule | EC50 (Erythrocytes; [5]) | EC50 (Erythrocytes; [6]) | DNA band shift on agarose gel (pGL3 [4]) | hemolytic activity when combined with pGL3 (Erythrocytes) | also measured
Lys(Acr)-Arg-Lys(Acr)-Arg-Lys(Acr)-Arg-Lys(Acr)-Arg-Cys (K(Acr)RK(Acr)RK(Acr)RK(Acr)RC) [poly(Acr-Arg)4-Cys] | > 10 µM | > 10 µM |  |  | thiazole orange displacement, asymptote / equivalence point of fluorescence intensity (pGL3 [1]): approximately 0.4 nmols of peptide per μg of DNA; thiazole orange displacement, asymptote / equivalence point of fluorescence intensity (pGL3 [1]; listed as (Acr-Arg)4-Cys): 0.35 nmols of peptide per μg of DNA
PEG-Cys-Trp-(Lys(Acr))5: PEG5000 Da-maleimide on Cys of Cys-Trp-Lys5, Lys ε-amines conjugated with 6-(9-acridinylamino) hexanoic acid; SEQ ID NO: 5 (C(PEG 5000 Da maleimide)WK(6‑(9-acridinylamino)hexanoyl)K(6‑(9-acridinylamino)hexanoyl)K(6‑(9-acridinylamino)hexanoyl)K(6‑(9-acridinylamino)hexanoyl)K(6‑(9-acridinylamino)hexanoyl)) |  |  | complete retardation of DNA migration |  | luciferase expression at day 2, fold decrease versus pGL3 ([2]; formulation 0.2 nmol per μg of DNA, 1 μg pGL3, mice): 100 fold; luciferase expression at day 2 compared with pGL3 ([2]; open polyplex 2 nmol per μg of DNA, 1 μg pGL3, mice): identical expression levels; luciferase expression at day 2, fold lower than pGL3 ([2]; open polyplex 4 nmol per μg of DNA, 1 μg pGL3, mice): approximately 10 fold; loss in expression across the 14 day sampling period ([2]; open polyplexes 4 nmol per μg of DNA, mice): 2-3 fold; decrease of expression over 14 days ([2]; open polyplexes 0.2 and 2 nmol per μg of DNA, mice): 10 fold; zeta potential asymptote ([3]; at 1 nmol per μg of DNA): −5 mV
PEG-Cys-Trp-(Lys(Acr))4: PEG5000 Da-maleimide on Cys of Cys-Trp-Lys4, Lys ε-amines conjugated with 6-(9-acridinylamino) hexanoic acid; SEQ ID NO: 4 (C(PEG 5000 Da maleimide)WK(6‑(9-acridinylamino)hexanoyl)K(6‑(9-acridinylamino)hexanoyl)K(6‑(9-acridinylamino)hexanoyl)K(6‑(9-acridinylamino)hexanoyl)) |  |  | further retarded DNA migration |  | 
(CWKKGIGAVLKVLTTGLPALISLIKRKRQQ)2 [Dimeric-melittin] | 1.2 µM | 1 µM |  |  | 
PEG-Cys-Trp-(Lys)5: PEGylated Cys-Trp-Lys5 without acridine, SEQ ID NO: 19 (C(PEG)WKKKKK; reading uncertain; also: PEG5000 Da maleimide on Cys, printed as PEG-Cys-Trp-(Lys)5) |  |  | unable to cause a band DNA shift |  | 
CC[C@H](C)[C@H](NC(=O)CN)C(=O)NCC(=O)N[C@@H](C)C(=O)N[C@H](C(=O)N[C@@H](CC(C)C)C(=O)N[C@@H](CCCCN)C(=O)N[C@H](C(=O)N[C@@H](CC(C)C)C(=O)N[C@H](C(=O)N[C@H](C(=O)NCC(=O)N[C@@H](CC(C)C)C(=O)N1CCC[C@H]1C(=O)N[C@@H](C)C(=O)N[C@@H](CC(C)C)C(=O)N[C@H](C(=O)N[C@@H](CO)C(=O)N[C@@H](Cc1c[nH]c2ccccc12)C(=O)N[C@H](C(=O)N[C@@H](CCCCN)C(=O)N[C@@H](CCCNC(=N)N)C(=O)N[C@@H](CCCCN)C(=O)N[C@@H](CCCNC(=N)N)C(=O)N[C@@H](CCC(N)=O)C(=O)N[C@@H](CCC(N)=O)C(N)=O)[C@@H](C)CC)[C@@H](C)CC)[C@@H](C)O)[C@@H](C)O)C(C)C)C(C)C [Melittin, reference compound] | 2.3 µM | 0.9 µM |  | nearly unchanged | 
CWKKGIGAVLKVLTTGLPALISLIKRKRQQ [Cys-melittin] | 0.7 µM | 1 µM |  | maintained their hemolytic activity; also recorded: nearly unchanged | thiazole orange displacement, asymptote / equivalence point of fluorescence intensity (pGL3 [1]): approximately 0.5 nmols of peptide per μg of DNA
PEG-Cys-Trp-(Lys(Acr))3: PEG5000 Da-maleimide on Cys of Cys-Trp-Lys3, Lys ε-amines conjugated with 6-(9-acridinylamino) hexanoic acid; SEQ ID NO: 3 (C(PEG 5000 Da maleimide)WK(6‑(9-acridinylamino)hexanoyl)K(6‑(9-acridinylamino)hexanoyl)K(6‑(9-acridinylamino)hexanoyl)) |  |  | further retarded DNA migration |  | apparent particle diameter [3]: approximately 200 nm; apparent particle diameter ([3]; listed as PEG-Cys-(Lys(Acr))3): 200 nm; zeta potential over titration ([3]; titrating with 0.1 to 2 nmol per μg of DNA): −15 to −5 mV
(m)GWKKGIGAVLKVLTTGLPALISLIKRKRQQ [Mal-melittin] | 4.8 µM | 3.84 µM |  | maintained their hemolytic activity | 
PEGylated-SS-(Acr-Arg)4: (Acr-Arg)4-Cys with Cys thiol reacted with 5 kDa PEG-OPSS, reducible disulfide linkage |  |  |  |  | BLI luciferase expression in liver at 24 hr (liver): approximately 10^7 photons/sec/cm^2/sr
